What all share (test): MIC susceptibility testing, broth microdilution in CaMHB
The subject of assay [1] is E. coli ATCC25922. The assay is classed as cell-based, Escherichia coli. The method, then:
(§1) To evaluate the potency and spectrum of the compounds, susceptibility testing was performed against four strains of each of the four Gram negative pathogens, Escherichia coli, Pseudomonas aeruginosa, Klebsiella pneumoniae and Acinetobacter baumannii.
(§2) The day before testing, 3 to 4 colonies were picked from fresh Mueller-Hinton Agar (MHA) plate and transferred into 10 mL of Cation adjusted MHB (CaMHB). Cultures were incubated at 37° C. 250 rpm for 18-20 hours before being diluted 100-fold in fresh CaMHB. The subcultures were grown further until the OD600 reached 0.2-0.3 corresponding to […]. The actively growing cultures were diluted 100-fold in fresh medium and used for the inoculum.
(§3) The assays were performed in duplicate.
(§4) Data was obtained under similar conditions to Table 4 except that different batches of cation-adjusted Muller-Hinton broth were used. The MIC values for these compounds are compared with those values obtained for Polymyxin B, Colistin Sulphate, CB-182,804 and NAB739 (as the TFA salt). CB-182,804 is a polymyxin decapeptide derivative with an aryl urea substituent at the N-terminus, which has been claimed to have lower toxicity than Polymyxin B (compound 5 in WO 2010/075416. See page 37). NAB739 has been described previously by Vaara et al.

In assay [2] the test system is E. coli ATCC700928. Format: cell-based, Escherichia coli. The method, then: as §1, §2, §3, §4
The test system of assay [3] is E. coli NCTC9001. Format: cell-based, Escherichia coli. The method, then:
as §1, §2, §3, §4

For assay [4], the system named is P. aeruginosa ATCC10145. The assay is classed as cell-based, Pseudomonas aeruginosa. The method, then: as §1, §2, §3, §4
Assay [5] deals with P. aeruginosa ATCC27853. Format: cell-based, Pseudomonas aeruginosa. The method, then:
as §1, §2, §3, §4

For assay [6], the system named is P. aeruginosa ATCCCRM-9027. The assay is classed as cell-based, Pseudomonas aeruginosa. The method, then:
as §1, §2, §3, §4

Assay [7] deals with K. pneumoniae NCTC7427. The assay is classed as cell-based, Klebsiella pneumoniae. The method, then: as §1, §2, §3, §4
Assay [8] concerns A. baumannii NCTC7844. The assay is classed as cell-based, Acinetobacter baumannii. The method, then:
as §1, §2, §3, §4

For assay [9], the system named is E. coli NCTC12900. The assay is classed as cell-based, Escherichia coli. As to conditions: Table 4A, different batches of cation-adjusted Muller-Hinton broth. The method, then: as §1, §2, §3, §4
The subject of assay [10] is K. pneumoniae ATCC 4352. The assay is classed as cell-based, Klebsiella pneumoniae. As to conditions: K. pneumoniae ATCC4352; Table 4A, different batches of cation-adjusted Muller-Hinton broth. The method, then: as §1, §2, §3, §4
Assay [11] has as its system K. pneumoniae ATCCBAA-1706. The assay is classed as cell-based, Klebsiella pneumoniae. As to conditions: Table 4A, different batches of cation-adjusted Muller-Hinton broth. The method, then: as §1, §2, §3, §4
The subject of assay [12] is K. pneumoniae NCTC8172. The assay is classed as cell-based, Klebsiella pneumoniae. As to conditions: Table 4A, different batches of cation-adjusted Muller-Hinton broth. The method, then: as §1, §2, §3, §4
Assay [13] relates to A. baumannii ATCC19606. Format: cell-based, Acinetobacter baumannii. As to conditions: Table 4A, different batches of cation-adjusted Muller-Hinton broth. The method, then:
as §1, §2, §3, §4

Assay [14] has as its system A. baumannii ATCCBAA-747. Format: cell-based, Acinetobacter baumannii. As to conditions: Table 4A, different batches of cation-adjusted Muller-Hinton broth. The method, then:
as §1, §2, §3, §4

For assay [15], the system named is A. baumannii NCTC13423. Format: cell-based, Acinetobacter baumannii. As to conditions: Table 4A, different batches of cation-adjusted Muller-Hinton broth. The method, then: as §1, §2, §3, §4
In assay [16] the test system is P. aeruginosa ATCC 9721. The assay is classed as cell-based, Pseudomonas aeruginosa. As to conditions: P. aeruginosa ATCC9721; Table 4A, different batches of cation-adjusted Muller-Hinton broth. The method, then:
as §1, §2, §3, §4

The mark [17] stands for this setting: Table 4A, different batches of cation-adjusted Muller-Hinton broth.
Where [18] appears, read: P. aeruginosa AATCCRM 9027, Table 4A, different batches of cation-adjusted Muller-Hinton broth.

Structures can show the parent of a compound that is named as a salt. Where a SMILES comes first, the peptide text is derived from it. Bridges are numbered along the chain shown (N, C = ends). [ ]: non-standard residue; d: D form. The star is where a group is joined. ξ: configuration not given here. ξHexahydromandeloyl = O=C(C(O)C1CCCCC1)*; X8 = O=C([C@H]1CC[C@H](O)CC1)*; Thr(3ξ) = CC(O)[C@H](N)C(=O)O; X5 = CC(C)[C@H](N)CCC(=O)*; Dab = NCC[C@H](N)C(=O)O; X12 = O=C(CCCN1CCOCC1)*; X11 = CC(C)(N)CCC(=O)*; Glycolyl = O=C(CO)*; X4 = CN(C)CCCC(=O)*; X6 = O=C(CCCCCCCO)* Some results are limits rather than exact numbers.

On to `CC(C)C[C@@H]1NC(=O)[C@@H](Cc2ccccc2)NC(=O)[C@H](CCN)NC(=O)[C@@H](NC(=O)[C@H](CCN)NC(=O)[C@@H](NC(=O)CCCCCCCO)C(C)O)CCNC(=O)[C@H](C(C)O)NC(=O)[C@H](CCN)NC(=O)[C@H](CCN)NC1=O` (some centres unmarked) [Example 8, 8-Hydroxyoctanoyl Polymyxin B Nonapeptide, Sulphate Salt] (X6-[Thr(3ξ)][Dab][Dab][Dab][dF]L[Dab][Dab][Thr(3ξ)]; lactam 3-C), for which the MIC in assay [1] (Table 4) is given as 2 micrograms/mL; in [2] (Table 4) it was 0.5 micrograms/mL; in assay [3] (Table 4) it was 2 micrograms/mL; in assay [4] (Table 4) it was 2 micrograms/mL; in assay [5] (Table 4) it was 0.5 micrograms/mL; in [6] (P. aeruginosa ATCCCRM-9027, Table 4), 0.25 micrograms/mL. In addition, the MIC in assay [7] (Table 4) was 1 micrograms/mL; in assay [8] (Table 4), 16 micrograms/mL.

With `CC(C)C[C@@H]1NC(=O)[C@@H](Cc2ccccc2)NC(=O)[C@H](CCN)NC(=O)[C@@H](NC(=O)[C@H](CCN)NC(=O)[C@@H](NC(=O)CCCN(C)C)C(C)O)CCNC(=O)[C@H](C(C)O)NC(=O)[C@H](CCN)NC(=O)[C@H](CCN)NC1=O` (some centres unmarked) [Example 18, 4-(N,N-dimethylamino)-butanoyl polymyxin B nonapeptide] (X4-[Thr(3ξ)][Dab][Dab][Dab][dF]L[Dab][Dab][Thr(3ξ)]; lactam 3-C), the MIC was 0.5 micrograms/mL in [1] (setting [17]); 0.25 micrograms/mL in assay [2] (setting [17]); 4 micrograms/mL in assay [9]; 0.25 micrograms/mL in assay [4] (setting [17]); 0.125 micrograms/mL in assay [5] (setting [17]); 2 micrograms/mL in [6] (setting [18]). Besides, the MIC is on record as 0.5 micrograms/mL in assay [10]; 8 micrograms/mL in assay [11]; 0.125 micrograms/mL in [7] (setting [17]); more than 32 micrograms/mL in [12]; 1 micrograms/mL in [13]; 16 micrograms/mL in assay [14]. The MIC in [15] is on record as 4 micrograms/mL; in [8] (setting [17]), 8 micrograms/mL.

On to `CC(C)C[C@@H]1NC(=O)[C@@H](Cc2ccccc2)NC(=O)[C@H](CCN)NC(=O)[C@@H](NC(=O)[C@H](CCN)NC(=O)[C@@H](NC(=O)CC[C@@H](N)C(C)C)C(C)O)CCNC(=O)[C@H](C(C)O)NC(=O)[C@H](CCN)NC(=O)[C@H](CCN)NC1=O` (stereo partly drawn) [Example 29, 4-(R)-Amino-5-methylhexanoyl polymyxin B nonapeptide] (X5-[Thr(3ξ)][Dab][Dab][Dab][dF]L[Dab][Dab][Thr(3ξ)]; lactam 3-C), for which the MIC in assay [1] (setting [17]) was 8 micrograms/mL; in assay [2] (setting [17]) it was 2 micrograms/mL; in assay [16], 0.25 micrograms/mL; in assay [4] (setting [17]) it was 0.5 micrograms/mL; in assay [5] (setting [17]), 0.125 micrograms/mL; in [6] (setting [18]), 0.5 micrograms/mL. Moreover, the MIC is 0.5 micrograms/mL in [10]; 0.5 micrograms/mL in assay [7] (setting [17]); more than 32 micrograms/mL in [12]; 2 micrograms/mL in assay [13]; 1 micrograms/mL in assay [14]; 0.5 micrograms/mL in assay [15]. For the same compound, the MIC in assay [8] (setting [17]) amounted to 2 micrograms/mL.

In the case of `CC(C)C[C@@H]1NC(=O)[C@@H](Cc2ccccc2)NC(=O)[C@H](CCN)NC(=O)[C@@H](NC(=O)[C@H](CCN)NC(=O)[C@@H](NC(=O)CO)C(C)O)CCNC(=O)[C@H](C(C)O)NC(=O)[C@H](CCN)NC(=O)[C@H](CCN)NC1=O` (some centres unmarked) [Example 16, Hydroxyacetyl polymyxin B nonapeptide] (Glycolyl-[Thr(3ξ)][Dab][Dab][Dab][dF]L[Dab][Dab][Thr(3ξ)]; lactam 3-C), the MIC in [1] (setting [17]) was 32 micrograms/mL; in [5] (setting [17]), 0.25 micrograms/mL; in assay [10], 8 micrograms/mL; in assay [13], 32 micrograms/mL.

In the case of `CC(C)C[C@@H]1NC(=O)[C@@H](Cc2ccccc2)NC(=O)[C@H](CCN)NC(=O)[C@@H](NC(=O)[C@H](CCN)NC(=O)[C@@H](NC(=O)C(O)C2CCCCC2)C(C)O)CCNC(=O)[C@H](C(C)O)NC(=O)[C@H](CCN)NC(=O)[C@H](CCN)NC1=O` (stereo partly drawn) [Example 34, 2-(R,S)-(2-Hydroxy-2-cyclohexyl) ethanoyl polymyxin B nonapeptide] (ξHexahydromandeloyl-[Thr(3ξ)][Dab][Dab][Dab][dF]L[Dab][Dab][Thr(3ξ)]; lactam 3-C), the MIC in assay [1] (setting [17]) came out at 0.5 micrograms/mL; in [9], 8 micrograms/mL; in assay [3] (setting [17]), 8 micrograms/mL; in assay [16] it was 0.25 micrograms/mL; in assay [4] (setting [17]) it was 0.5 micrograms/mL; in assay [5] (setting [17]) it was 0.125 micrograms/mL. For the same compound, the MIC in assay [6] (setting [18]) was 0.5 micrograms/mL; in [10], 1 micrograms/mL; in assay [7] (setting [17]) it was 0.5 micrograms/mL; in assay [12] it was more than 32 micrograms/mL; in [13] it was 1 micrograms/mL; in assay [14], 1 micrograms/mL. Also, the results for the MIC in assay [15] and in assay [8] (setting [17]) were 0.25 micrograms/mL and 2 micrograms/mL, respectively.

As for `CC(C)C[C@@H]1NC(=O)[C@@H](Cc2ccccc2)NC(=O)[C@H](CCN)NC(=O)[C@@H](NC(=O)[C@H](CCN)NC(=O)[C@@H](NC(=O)CCC(C)(C)N)C(C)O)CCNC(=O)[C@H](C(C)O)NC(=O)[C@H](CCN)NC(=O)[C@H](CCN)NC1=O` (some centres unmarked) [Example 28, 4-Amino-4-methyl pentanoyl polymyxin B nonapeptide] (X11-[Thr(3ξ)][Dab][Dab][Dab][dF]L[Dab][Dab][Thr(3ξ)]; lactam 3-C), the MIC is 4 micrograms/mL in [1] (setting [17]), less than 0.06 micrograms/mL in [5] (setting [17]), 0.25 micrograms/mL in [10] and 4 micrograms/mL in [13].

Turning to `CC(C)C[C@@H]1NC(=O)[C@@H](Cc2ccccc2)NC(=O)[C@H](CCN)NC(=O)[C@@H](NC(=O)[C@H](CCN)NC(=O)[C@@H](NC(=O)[C@H]2CC[C@H](O)CC2)C(C)O)CCNC(=O)[C@H](C(C)O)NC(=O)[C@H](CCN)NC(=O)[C@H](CCN)NC1=O` (stereo partly drawn) [Example 32, trans-4-hydroxycyclohexanecarbonyl polymyxin B nonapeptide] (X8-[Thr(3ξ)][Dab][Dab][Dab][dF]L[Dab][Dab][Thr(3ξ)]; lactam 3-C), the MIC in assay [1] (setting [17]) was determined as 8 micrograms/mL; in [5] (setting [17]), 0.125 micrograms/mL; in assay [10] it was 4 micrograms/mL; in assay [13] it was 16 micrograms/mL.

Regarding `CC(C)C[C@@H]1NC(=O)[C@@H](Cc2ccccc2)NC(=O)[C@H](CCN)NC(=O)[C@@H](NC(=O)[C@H](CCN)NC(=O)[C@@H](NC(=O)CCCN2CCOCC2)C(C)O)CCNC(=O)[C@H](C(C)O)NC(=O)[C@H](CCN)NC(=O)[C@H](CCN)NC1=O` (some centres unmarked) [Example 20, 4-Morpholinylbutanoyl polymyxin B nonapeptide] (X12-[Thr(3ξ)][Dab][Dab][Dab][dF]L[Dab][Dab][Thr(3ξ)]; lactam 3-C), the MIC is reported as 4 micrograms/mL in assay [1] (setting [17]), 1 micrograms/mL in assay [5] (setting [17]), more than 32 micrograms/mL in assay [10] and more than 32 micrograms/mL in assay [13].

Values taken from patent US9234006B2, “Compounds” (Novacta Biosystems Limited, priority 2011, dated 2016).
